Experimental data from patent publication US20240173389A1, “Compositions and Methods For Reducing Immune Intolerance” (LAPIX THERAPEUTICS, INC., priority 2021, published 2024).
Entries after “also recorded” stand apart in the source; their conditions may differ.

Assays:
FoxP3+/CD4+ T-cell = assay: Ex vivo flow cytometry of splenocytes for FoxP3+/CD4+ T-cells after AAV9 treatment period (Example 3); assay type: in vivo, mice; conditions: SC QW 4 weeks with AAV9; OPLT 5 mg, liposomal OBLT 50 μg OBLT; one animal per group
Procedure: OPLT and OBLT were dissolved in sterile PBS, and pH was adjusted to approximately 7.5. Liposomal OBLT was prepared using […]. AAV9 in PBS was used as a control. For treatment, AAV9 was co-mixed with OPLT or liposomal OBLT before administration, as per group assignment for each animal. AAV9 was administered with 5 mg of OPLT SC QW, 50 μg OBLT SC QW as liposomal OBLT or 7.2 μg OBLT PO QD as liposomal OBLT. For all SC groups, AAV9 was dosed at 10^6 particles/injection. For PO groups, AAV9 was dosed at 1.43×10^5 particles/injection.
Animals were injected with AAV9, AAV9+OPLT, or AAV9+liposomal OBLT SC QW for 4 weeks. Blood samples were collected for anti-AAV9 titer analysis after a one-week washout period from the last dose. For oral tolerance, animals were administered AAV9 or AAV9+liposomal OBLT PO, QD for 4 weeks. AAV9 was also administered SC QW to both groups during the treatment period. Blood samples were collected for anti-AAV9 titer analysis after a one-week washout period from the last dose.
One week after the last dose, one animal from each group was selected at random for ex-vivo analysis of the T-cell population. Spleens were collected and a single-cell suspension was prepared for cellular phenotyping by flow cytometry. Cells were stained and gated for CD4+ T-cells. FoxP3 expression level was evaluated for each animal.

TLR3 = assay: TNF-α production by splenocytes in response to TLR3 ligand poly(I:C); assay type: cell-based, C57BL/6 mice; conditions: for TNF-α mean: 48 hours, OPLT 1.85 μg/ml, dexamethasone 100 μg/ml, rapamycin 625 μg/ml
Procedure: (§1) OPLT was dissolved in sterile PBS at 100 μM, and pH was adjusted to approximately 7.5. Splenocytes from naïve C57BL/6 mice were stained with CFSE, prepared, cultured, and dosed. Cells were seeded at 2×10^5 cells/well.
(§2) To evaluate the effects of OPLT on cytokine production by splenocytes in response to different TLR ligands, splenocytes were incubated with one of the following TLR ligands in triplicate: PGN, LPS, ODN CPG, dsRNA, or ssRNA, as per group assignment. Cells were then treated as follows: • Control: No treatment; • OPLT: Cells were dosed with 1.85 μg/ml; • Dexamethasone: Cells were dosed with 100 μg/ml; • Rapamycin: Cells were dosed with 625 μg/ml. Cells were incubated for 48 hours before collecting the supernatant for TNF-α analysis.
(§3) The supernatant was collected for TNF-α analysis by ELISA.

TLR2 = assay: TNF-α production by splenocytes in response to TLR2 ligand PGN; assay type: cell-based, C57BL/6 mice; conditions: for TNF-α mean: 48 hours, OPLT 1.85 μg/ml, dexamethasone 100 μg/ml, rapamycin 625 μg/ml
Procedure: as §1, §2, §3

TLR4 = assay: TNF-α production by splenocytes in response to TLR4 ligand LPS; assay type: cell-based, C57BL/6 mice; conditions: for TNF-α mean: 48 hours, OPLT 1.85 μg/ml, dexamethasone 100 μg/ml, rapamycin 625 μg/ml
Procedure: as §1, §2, §3

FoxP3+/CD4+ T-cells = assay: Splenocytes cultured 3 days with anti-CD3/anti-CD28 with or without OPLT, percent FoxP3+/CD4+ T-cells (Example 6); assay type: cell-based, C57BL/6 mice; conditions: 72-hour incubation
Procedure: as §1
To evaluate the effects of OPLT on FoxP3+/CD4+ T-cells, splenocytes were cultured for 3 days in presence of anti-CD3/anti-CD28 with and without 1.85 μg/ml (10 μM) OPLT. Cells were harvested at the end of a 72-hour incubation period and percent FoxP3+/CD4+ T-cells was determined by flow cytometry.

TLR9 = assay: TNF-α production by splenocytes in response to TLR9 ligand ODN CpG; assay type: cell-based, C57BL/6 mice; conditions: for TNF-α mean: 48 hours, OPLT 1.85 μg/ml, dexamethasone 100 μg/ml, rapamycin 625 μg/ml
Procedure: as §1, §2, §3

[1] = tested on: RAW264.7 mouse monocyte macrophage cells; assay: SAR screen in RAW 264.7 cells with FVIII antigen, TNF-α ELISA (Example 5); assay type: cell-based; conditions: free compounds dosed in mM range, FVIII antigen
From the text: RAW264.7 mouse monocyte macrophage cells were exposed to an increasing concentration of selected compounds in the presence of human plasma-derived FVIII as a model antigen protein. TNF-α and TGF-β production were monitored.
All molecules were formulated in RPMI media in aseptic conditions. The pH was adjusted to approximately 7.5 before dosing cells. 1,2-dimyristoyl-sn-glycero-3-phosphocholine (DM PC):PS liposomes were made at 70:30 molar ratio to make “PS” liposomes.
RAW 264.7 cells were prepared, cultured, and dosed. Cells were seeded at 4×10^5 cells/well. OPLS, OPLT and L-homocysteic acid (LHA) were dosed at 100, 85, 70, 60, 50, 30, 10, 3, 1, 0.3, 0.1, 0.03 and 0.01 mM, or at 100, 85, 70, 60, 50, 30, 10, 3 and 1 mM, as indicated. O-Benzyl-L-serine (OBLS), S-phenyl-L-cysteine (SPLC), S-benzyl-L-cysteine (SBLC) and OBLT were dosed at 100, 85, 70, 60, 50, 30, 10, 3, 1, 0.3, 0.1, 0.03, 0.01, 0.003 and 0.001 μM. Finally, 100 μl of 40 μg/ml of FVIII as a sample antigen was added to each cell. LPS and free protein were used as positive and baseline controls, respectively. TNF-α and TGF-β ELISA were conducted as per the manufacturer's instructions (R & D Systems).

Splenocytes = assay: Splenocyte culture with anti-CD3/anti-CD28 without antigen, Foxp3+/CD4+ by flow cytometry (Example 4); assay type: cell-based; conditions: 100 μM, three days, anti-CD3/anti-CD28, absence of any antigen
Procedure: Splenocytes were cultured for three days in presence of anti-CD3/anti-CD28 in presence of 100 μM PS or 100 μM OPLT in absence of any antigen.

SMILES: N[C@@H](Cc1ccc(OP(=O)(O)O)cc1)C(=O)O [OPLT, O-phospho-L-tyrosine]
- increase in FoxP3+/CD4+ compared to the untreated group (FoxP3+/CD4+ T-cell): 122%
- TNF-α mean (TLR3; PolyI:C 0 ng/ml): 0 pg/mL
- TNF-α mean (TLR3; PolyI:C 1 ng/ml, CTL 0): 0 pg/mL
- TNF-α mean (TLR3; PolyI:C 10 ng/ml, CTL 109): 0 pg/mL
- TNF-α mean (TLR3; PolyI:C 100 ng/ml, CTL 162): 0 pg/mL
- effect on splenocytes' TNF-α response to the TLR3 ligand poly(I:C) (in words) (TLR3; compared to control at all doses): abrogated splenocytes' response to the TLR3 ligand poly(I:C)
- TNF-α mean (TLR2; PGN 0 ng/ml): 0 pg/mL
- TNF-α mean (TLR2; PGN 1 ng/ml, CTL 730): 445 pg/mL
- TNF-α mean (TLR2; PGN 10 ng/ml, CTL 725): 613 pg/mL
- TNF-α mean (TLR2; PGN 100 ng/ml, CTL 834): 827 pg/mL
- effect on splenocytes' TNF-α response to the TLR2 ligand PGN (in words) (TLR2; PGN 1, 10, 100 ng/ml, compared to control): statistically significant reduction in TNF-α in the low PGN dose group (1 ng/ml), but not the mid or high PGN dose group
- TNF-α mean (TLR4; LPS 0 ng/ml): 0 pg/mL
- TNF-α mean (TLR4; LPS 1 ng/ml, CTL 143): 116 pg/mL
- TNF-α mean (TLR4; LPS 10 ng/ml, CTL 840): 676 pg/mL
- TNF-α mean (TLR4; LPS 100 ng/ml, CTL 1091): 838 pg/mL
- effect on splenocytes' TNF-α response to the TLR4 ligand LPS (in words) (TLR4; compared to control at all doses, 10 μM OPLT): did not abrogate splenocytes' response to LPS
- increase in FoxP3+/CD4+ T-cells versus untreated cells (FoxP3+/CD4+ T-cells; 10 μM (1.85 μg/ml) OPLT, anti-CD3/anti-CD28): 118%
- percent FoxP3+/CD4+ T-cells (FoxP3+/CD4+ T-cells; 10 μM OPLT, untreated 12.7%): 27.7%
- TNF-α mean (TLR9; ODN CpG 0 ng/ml): 0 pg/mL
- TNF-α mean (TLR9; ODN CpG 1 ng/ml, CTL 0): 0 pg/mL
- TNF-α mean (TLR9; ODN CpG 10 ng/ml, CTL 338): 0 pg/mL
- TNF-α mean (TLR9; ODN CpG 100 ng/ml, CTL 1220): 1178 pg/mL
- effect on splenocytes' TNF-α response to the TLR9 ligand ODN CpG (in words) (TLR9; high dose of ODN CpG): did not
- effect on splenocytes' TNF-α response to the TLR9 ligand ODN CpG (in words) (TLR9; mid-dose of ODN CpG, statistically significant): reduced splenocytes' response to mid-dose of the TLR9 ligand ODN CpG
- TNF-α production (suppression) versus OPLS [1]: suppressed TNF-α production at a lower dose than OPLS; also recorded: more potent inhibitors of TNF-α
- increase in Foxp3+/CD4+ compared to control (Splenocytes): 118%
